From US9494594B2, “Method of determining administration effect in cancer chemotherapy with S-1” (National University Corporation Chiba University, priority 2012, dated 2016)

System: shDCN cell line and Mock cell line of anticancer drug-resistant cell lines Sa-3R and KB-R
Assay: 5-FU sensitivity test, MTS cell survival assay
Assay type: cell-based
Settings: 72 hours incubation, shDCN vs Mock cell line
Procedure: Next, the shDCN cell line and the Mock cell line were cultured in the presence of an anticancer drug, and a change in the degree of resistance to the anticancer drug by the suppressed expression of DCN was verified by measuring a change in cell growth ability. 5-FU was used as the anticancer drug.
The shDCN cell line and the Mock cell line were each seeded to a 96-well plate at a density of 2×10^3 cells/100 μl of medium/well, and simultaneously mixed with 10 μl of a medium supplemented with 5-FU. The concentration of 5-FU was adjusted so that the final concentration was 1 μM to 1×10^4 μM. After that, the cells were incubated for 72 hours, and a cell survival rate was evaluated by an MTS assay. An MTS solution (product of Promega Corporation) was added at a volume of 10 μl/well, and the cells were incubated for 4 hours. After that, counting was performed with a plate reader at a wavelength of 490 nm. A 50% survival concentration (IC50) was determined based on the results of, the MTS assay.

## O=c1[nH]cc(F)c(=O)[nH]1 [5-FU, 5-fluorouracil]
  IC50 value of shDCN cell line relative to Mock cell line (increase in sensitivity to 5-FU): about 10 times lower
